Measured values as given in patent US10294202B2, “Pyrrolidinones as herbicides” (FMC Corporation, priority 2013, dated 2019).

Key:
barnyardgrass [1] = experiment: Test A pre-/postemergence herbicide test; format: in vivo, Echinochloa crus-galli
In short: (§1)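 Greenhouse pot test with pre- and postemergence application of surfactant-containing solvent formulations. Postemergence plants were 2–10 cm, one- to two-leaf stage. Response scored visually after ~10 days, 0 (no effect) to 100 (complete control).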

kochia = experiment: Test A pre-/postemergence herbicide test; format: in vivo, Kochia scoparia; details: for Plant response rating, Kochia: 0 to 100 scale
In short: as §1

ragweed = experiment: Test A pre-/postemergence herbicide test; format: in vivo, Ambrosia elatior; details: for Plant response rating, Ragweed: 0 to 100 scale
In short: as §1

ryegrass, Italian = experiment: Test A pre-/postemergence herbicide test; format: in vivo, Lolium multiflorum; details: for Plant response rating, Ryegrass, Italian: 0 to 100 scale
In short: as §1

giant foxtail = experiment: Test A pre-/postemergence herbicide test; format: in vivo, Setaria faberii; details: for Plant response rating, Foxtail, Giant: 0 to 100 scale
In short: as §1

pigweed = experiment: Test A pre-/postemergence herbicide test; format: in vivo, Amaranthus retroflexus; details: for Plant response rating, Pigweed: 0 to 100 scale
In short: as §1

wheat = experiment: Test A pre-/postemergence herbicide test; format: in vivo, Triticum aestivum; details: Postemergence; for Plant response rating, Wheat: 125 g ai/ha, 0 to 100 scale, 0 is no effect, 100 is complete control; for Wheat plant response rating (0 to 100 scale, 0 is no effect, 100 is complete control): 500 g ai/ha
In short: as §1

corn = experiment: Test A pre-/postemergence herbicide test; format: in vivo, Zea mays; details: Postemergence; for Plant response rating, Corn: 125 g ai/ha, 0 to 100 scale, 0 is no effect, 100 is complete control; for Corn plant response rating (0 to 100 scale, 0 is no effect, 100 is complete control): 500 g ai/ha
In short: as §1

blackgrass = experiment: Test A postemergence herbicide test; format: in vivo, Alopecurus myosuroides; details: for Plant response rating, Blackgrass: 125 g ai/ha, 0 to 100 scale, 0 is no effect, 100 is complete control; for Blackgrass plant response rating (0 to 100 scale, 0 is no effect, 100 is complete control): 500 g ai/ha
In short: (§2)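 Injury was rated visually about 10 days after treatment on a 0 (no effect) to 100 (complete control) scale, compared with untreated plants. Test chemicals were sprayed postemergence onto greenhouse plants 2–10 cm high at one to two leaves, grown in a loam–sand blend.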

galium = experiment: Test A postemergence herbicide test; format: in vivo, Galium aparine; details: for Plant response rating, Galium: 125 g ai/ha, 0 to 100 scale, 0 is no effect, 100 is complete control; for Galium plant response rating (0 to 100 scale, 0 is no effect, 100 is complete control): 500 g ai/ha
In short: as §2

rice = experiment: Test B flooded paddy test; format: in vivo, Oryza sativa; details: 500 g ai/ha, Flood; scale of 0 to 100 where 0 is no effect and 100 is complete control
In short: (§3)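 Scoring: visual, compared with untreated controls, 0 = no effect through 100 = complete control, taken 13 to 15 days after treatment in the greenhouse. Compounds had been added to paddy water over soil flooded 3 cm deep at the plants' 2-leaf stage.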

sedge, umbrella = experiment: Test B flooded paddy test; format: in vivo, Cyperus difformis; details: 500 g ai/ha, Flood; scale of 0 to 100 where 0 is no effect and 100 is complete control
In short: as §3

ducksalad = experiment: Test B flooded paddy test; format: in vivo, Heteranthera limosa; details: 500 g ai/ha, Flood; scale of 0 to 100 where 0 is no effect and 100 is complete control
In short: as §3

barnyardgrass [2] = experiment: Test B flooded paddy test; format: in vivo, Echinochloa crus-galli; details: 500 g ai/ha, Flood; scale of 0 to 100 where 0 is no effect and 100 is complete control
In short: as §3

[3] = 125 g ai/ha, visual rating, 0 to 100 scale, 0 no effect, 100 complete control, approximately 10 days, preemergence
[4] = Postemergence, 125 g ai/ha, 0 to 100 scale, 0 is no effect, 100 is complete control
[5] = 125 g ai/ha, visual rating, 0 no effect, 100 complete control, approximately 10 days, preemergence
[6] = Postemergence, 125 g ai/ha, 0 is no effect, 100 is complete control
[7] = preemergence, 500 g ai/ha, 0 is no effect and 100 is complete control

Compound | Plant response rating, Barnyardgrass (barnyardgrass [1]; [3]) | Plant response rating, Barnyardgrass (barnyardgrass [1]; [4]) | Barnyardgrass plant response rating (0 to 100 scale, 0 is no effect, 100 is complete control) (barnyardgrass [1]; Postemergence, 500 g ai/ha) | Plant response rating, Kochia (kochia; [5]) | Plant response rating, Kochia (kochia; [6]) | Kochia plant response rating (0 to 100 scale, 0 is no effect, 100 is complete control) (kochia; Postemergence, 500 g ai/ha) | Plant response rating, Kochia (kochia; [7]) | Plant response rating, Ragweed (ragweed; [5]) | Plant response rating, Ragweed (ragweed; [6]) | Ragweed plant response rating (0 to 100 scale, 0 is no effect, 100 is complete control) (ragweed; Postemergence, 500 g ai/ha) | Plant response rating, Ragweed (ragweed; [7]) | Plant response rating, Ryegrass, Italian (ryegrass, Italian; [5]) | Plant response rating, Ryegrass, Italian (ryegrass, Italian; [6]) | Ryegrass, Italian plant response rating (0 to 100 scale, 0 is no effect, 100 is complete control) (ryegrass, Italian; Postemergence, 500 g ai/ha) | Plant response rating, Ryegrass, Italian (ryegrass, Italian; [7]) | Plant response rating, Foxtail, Giant (giant foxtail; [5]) | Plant response rating, Foxtail, Giant (giant foxtail; [6]) | Foxtail, Giant plant response rating (0 to 100 scale, 0 is no effect, 100 is complete control) (giant foxtail; Postemergence, 500 g ai/ha) | Plant response rating, Pigweed (pigweed; [5]) | Plant response rating, Pigweed (pigweed; [6]) | further results
O=C1NCC(c2cccc(C3CC3)c2)C1C(=O)Nc1ccccc1F (racemic) [Compound 166] | 80 | 80 | 80 | 30 | 30 | 70 | 70 | 0 | 0 | 0 | 50 | 20 | 0 | 50 | 60 | 90 | 80 | 90 | 0 | 40 | Plant response rating, Barnyardgrass (barnyardgrass [1]; preemergence, 500 g ai/ha, 0 to 100 scale (0 no effect, 100 complete control)): 90; Plant response rating, Foxtail, Giant (giant foxtail; preemergence, 500 g ai/ha): 90; Pigweed plant response rating (0 to 100 scale, 0 is no effect, 100 is complete control) (pigweed; Postemergence, 500 g ai/ha): 50; Plant response rating, Pigweed (pigweed; [7]): 10; Plant response rating, Wheat (wheat): 20; Wheat plant response rating (0 to 100 scale, 0 is no effect, 100 is complete control) (wheat): 50; Plant response rating, Corn (corn): 30; Corn plant response rating (0 to 100 scale, 0 is no effect, 100 is complete control) (corn): 80; Plant response rating, Blackgrass (blackgrass): 50; Blackgrass plant response rating (0 to 100 scale, 0 is no effect, 100 is complete control) (blackgrass): 60; Plant response rating, Galium (galium): 20; Galium plant response rating (0 to 100 scale, 0 is no effect, 100 is complete control) (galium): 60; Plant response rating, Rice (rice): 0; Plant response rating, Sedge, Umbrella (sedge, umbrella): 0; Plant response rating, Ducksalad (ducksalad): 100; Plant response rating, Barnyardgrass (barnyardgrass [2]): 75
O=C1NCC(c2ccc(Cl)cc2)C1C(=O)Nc1ccccc1F (stereo not drawn) [Compound 217] | 70 | 70 | 90 | 30 | 20 | 70 | 70 | 0 | 0 | 30 | 50 | 40 | 0 | 30 | 60 | 90 | 80 | 90 | 20 | 0 | Plant response rating, Barnyardgrass (barnyardgrass [1]; preemergence, 500 g ai/ha, 0 to 100 scale, 0 is no effect and 100 is complete control): 90; Plant response rating, Foxtail, Giant (giant foxtail; [7]): 90; Pigweed plant response rating (0 to 100 scale, 0 is no effect, 100 is complete control) (pigweed; Postemergence, 500 g ai/ha): 0; Plant response rating, Pigweed (pigweed; [7]): 40; Plant response rating, Wheat (wheat): 20; Wheat plant response rating (0 to 100 scale, 0 is no effect, 100 is complete control) (wheat): 30; Plant response rating, Corn (corn): 20; Corn plant response rating (0 to 100 scale, 0 is no effect, 100 is complete control) (corn): 30; Plant response rating, Blackgrass (blackgrass): 20; Blackgrass plant response rating (0 to 100 scale, 0 is no effect, 100 is complete control) (blackgrass): 50; Plant response rating, Galium (galium): 30; Galium plant response rating (0 to 100 scale, 0 is no effect, 100 is complete control) (galium): 50; Plant response rating, Rice (rice): 0; Plant response rating, Sedge, Umbrella (sedge, umbrella): 0; Plant response rating, Ducksalad (ducksalad): 100; Plant response rating, Barnyardgrass (barnyardgrass [2]): 40
